Laboratory results as given in patent publication US20260308159A1, “BICYCLIC HETEROARYLAMIDES HAVING GPR68 MODULATING ACTIVITY” (RECURSION PHARMACEUTICALS, INC., priority 2023, published 2026).

What follows are compounds tested against T1, human GPR68 (Homo sapiens, UniProt Q15743) (assay: GPR68 Biochemical Assay (Promega GloSensor cAMP assay, GPR68 antagonism)). Settings: HEK293T cells transiently expressing hGPR68, antagonism of pH 5.5 stimulated cAMP, 15 min, read-out: hGPR68 IC50.
T1 construct: encoding full-length human GPR68 (uniprot ID: Q15743); expressed in transfected cells; host or cells: HEK293T
Assay type: cell-based
Description: GPR68 antagonism was determined using the Promega GloSensor™ CAMP assay (F. I. Wang et al., Methods 2021, S1046-2023 (21) 00249-8). HEK293T cells (obtained from ECACC, Cat 12022001, Lot no. 17E044) were cultured in T175 flasks (Greiner, Cat 660175) in DMEM (Gibco, Cat 11995-065) supplemented with 10% Fetal Bovine Serum (Gibco Cat 16000-044), and 100 u/mL Pen-Strep (Gibco, Cat 15140) at 37° C. and 5% CO2. GPR68 expression was achieved by transient transfection with a mammalian expression plasmid encoding full-length human GPR68 (uniprot ID: Q15743) under control of a CMV promoter. The day before transfection, cell media was aspirated and HEK293T cells were incubated with accutase (Sigma, Cat A6964) for 3-4 minutes 37° C. and 5% CO2 before being manually detached with excess DMEM and trituration. Cell density was determined by automated cell counting (Countess, Invitrogen) and adjusted to 6×10^6 cells/20 mL and transferred to 15 cm dishes (Thermo Fisher, Cat 130183) for overnight incubation at 37° C. and 5% CO2. The next day separate mammalian expression plasmids encoding hGPR68 (4 μg) and Promega GloSensor (8 μg) were diluted to 1 mL in Opti-MEM (Thermo Fisher Scientific, Cat 31985070) and incubated with 30 μL of lipofectamine 3000 (also diluted to 1 mL in Opti-MEM) for 15 minutes at room temperature and subsequently added dropwise to the plated cells. Post transfection cells were then incubated at 37° C. and 5% CO2 for at least 16 hours before transfer to assay plates the following day. Transfer was conducted by washing cells with PBS and incubating with accutase for 3-4 minutes 37° C. and 5% CO2 before being manually detached with excess DMEM and mild trituration. The suspension was then centrifuged at 192 RCF for 4 minutes in a 50 mL centrifuge tube (Greiner, Cat 227261).
Supernatant was removed by aspiration and the cell pellet was resuspended in DMEM+1% dialysed FBS (Gibco, Cat 26400-044) and 100 u/mL Pen-Strep to a cell density of 500 cells/μL. Cells were plated into poly-L-Lysine coated 384-well white assay plates (Corning, Cat 3570) at a final volume of 40 µL and a density of 20,000 cells/well before overnight incubation at 37° C. and 5% CO2. The following day media was manually ejected from the 384-well assay plate and replaced with 10 μL GloSensor substrate (Promega, Cat E1291) prepared in pH 8.0 assay buffer (1×HBSS, 10 mM HEPES, 10 mM MOPS). Cells were incubated with this solution for 60 minutes at room temperature in the dark. Test compounds or an equivalent volume of DMSO (vehicle) were added to compounds plates to create a 9-point, half-log concentration series for each compound with a maximum final assay concentration of 50 μM and a consistent final DMSO concentration of 0.5%. Assay buffer with 0.1% BSA and 0.01% ascorbic acid was prepared at three pHs: pH 8.0, pH 5.5 and pH 4.5. pH 8.0 and 4.5 were added to the compound plate as maximum and minimum effect controls whilst pH 5.5 was added to all compound wells to stimulate GPR68 to a level corresponding to […] of maximal stimulation after addition to the cells already in pH 8.0 (assay acceptance criteria range 70-90%). DMSO/Compound and buffer was added to the plated cells containing the GloSensor substrate and incubated for 15 minutes at room temperature before being read on a microplate reader (BMG PHERAstar, optic module LUM Plus with Gain 3600). Data was exported and analysed in excel and Graphpad prism (version 9). Assay QC acceptance criteria required the maximum and minimum controls to return a Z′≥0.5, the EC80 to be 80%±10% of expected and the reference ligand pIC50 to be within one-half-log unit of its historical IC50. Percent inhibition was calculated using the mean EC80 (pH 5.5) and mean minimum effect control (pH 8.0). Data were plotted as percentage inhibition, average±SEM. IC50, Emax, Emin, Actual max, actual min, R^2 and fit confidence were calculated using Graphpad Prism's sigmoidal dose-response function.

T1 sequence (Q15743 whole entry): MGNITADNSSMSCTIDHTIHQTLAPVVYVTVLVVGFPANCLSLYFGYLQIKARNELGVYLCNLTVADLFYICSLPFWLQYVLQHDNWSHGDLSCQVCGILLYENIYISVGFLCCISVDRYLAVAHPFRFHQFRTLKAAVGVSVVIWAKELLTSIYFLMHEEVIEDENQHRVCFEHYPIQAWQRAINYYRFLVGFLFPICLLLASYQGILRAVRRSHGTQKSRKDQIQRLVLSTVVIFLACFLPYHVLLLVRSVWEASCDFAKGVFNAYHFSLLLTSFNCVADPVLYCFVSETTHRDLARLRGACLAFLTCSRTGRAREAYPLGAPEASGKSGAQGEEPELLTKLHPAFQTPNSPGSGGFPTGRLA

Row | SMILES | IC50 [nM]
1 | COCc1nc2c(C(=O)NC3Cc4cccnc4C3)ccnn2c1C(N)=O (stereo not drawn) [Compound 104, N8-(6,7-dihydro-5H-cyclopenta[b]pyridin-6-yl)-2-(methoxymethyl)imidazo[1,2-b]pyridazine-3,8-dicarboxamide] | 50 to 500
2 | COCc1nn2c(C(=O)NCc3ccc4c(c3)CCO4)ccnc2c1C(N)=O [Compound 67, N7-(2,3-dihydrobenzofuran-5-ylmethyl)-2-(methoxymethyl)pyrazolo[1,5-a]pyrimidine-3,7-dicarboxamide] | 50 to 500
3 | COCc1nn2c(C(=O)NC3COc4cc(F)cc(F)c4C3)ccnc2c1C(N)=O (stereo not drawn) [Compound 185, N7-(5,7-difluorochroman-3-yl)-2-(methoxymethyl)pyrazolo[1,5-a]pyrimidine-3,7-dicarboxamide] | 50 to 500
4 | COCc1nn2c(C(=O)NC3Cc4cccnc4C3)ccnc2c1C(N)=O (stereo not drawn) [Compound 60, N7-(6,7-dihydro-5H-cyclopenta[b]pyridin-6-yl)-2-(methoxymethyl)pyrazolo[1,5-a]pyrimidine-3,7-dicarboxamide] | < 50
5 | COCc1nn2c(C(=O)N[C@H]3COc4cc(F)ccc43)ccnc2c1C(N)=O [Compound 128, 2-(methoxymethyl)-N7-[(3R)-6-fluoro-2,3-dihydrobenzofuran-3-yl]pyrazolo[1,5-a]pyrimidine-3,7-dicarboxamide] | < 50
6 | COCc1nn2c(C(=O)NC3CS(=O)(=O)C3)ccnc2c1C(N)=O [Compound 225, N7-(1,1-dioxothietan-3-yl)-2-(methoxymethyl)pyrazolo[1,5-a]pyrimidine-3,7-dicarboxamide] | < 50
7 | COCc1nn2c(C(=O)NC3CCS(=O)(=O)c4ccccc43)ccnc2c1C(N)=O (stereo not drawn) [Compound 189, N7-(1,1-dioxo-3,4-dihydro-2H-thiochromen-4-yl)-2-(methoxymethyl)pyrazolo[1,5-a]pyrimidine-3,7-dicarboxamide] | < 50
8 | NC(=O)c1c(C2CC2)nc2c(C(=O)NC3Cc4cscc4C3)ccnn12 [Compound 208, 2-cyclopropyl-N8-(5,6-dihydro-4H-cyclopenta[c]thiophen-5-yl)imidazo[1,2-b]pyridazine-3,8-dicarboxamide] | < 50
9 | COc1ccc2[nH]c(C(C)NC(=O)c3ccnc4c(C(N)=O)cnn34)nc2c1 (stereo not drawn) [Compound 98, N7-[1-(5-methoxy-1H-1,3-benzodiazol-2-yl)ethyl]pyrazolo[1,5-a]pyrimidine-3,7-dicarboxamide] | 5000 to 50000
10 | NC(=O)c1cnn2c(C(=O)NC3Cc4cccc(CCC(F)(F)F)c4C3)ccnc12 (stereo not drawn) [Compound 14, N7-[4-(3,3,3-trifluoropropyl)indan-2-yl]pyrazolo[1,5-a]pyrimidine-3,7-dicarboxamide] | 500 to 5000

The next lines start with the values.

Row | IC50 [nM] | SMILES
11 | < 50 | Cc1nn2c(C(=O)NC3Cc4ccccc4C3)ccnc2c1C(N)=O [Compound 46, N7-indan-2-yl-2-methyl-pyrazolo[1,5-a]pyrimidine-3,7-dicarboxamide]
12 | < 50 | COCc1nn2c(C(=O)N[C@@H]3COc4c3ccc(F)c4F)ccnc2c1C(N)=O [Compound 238, N7-[(3S)-6,7-difluoro-2,3-dihydrobenzofuran-3-yl]-2-(methoxymethyl)pyrazolo[1,5-a]pyrimidine-3,7-dicarboxamide]
13 | < 50 | COCc1nn2c(C(=O)N[C@H]3CCOc4cc(F)ccc43)ccnc2c1C(N)=O [Compound 123, 2-(methoxymethyl)-N7-[(4S)-7-fluorochroman-4-yl]pyrazolo[1,5-a]pyrimidine-3,7-dicarboxamide]
14 | < 50 | CNc1nn2c(C(=O)N[C@H]3C[C@@H](OC(F)(F)F)C3)ccnc2c1C(N)=O [Compound 145, 2-(methylamino)-N7-[cis-3-(trifluoromethoxy)cyclobutyl]pyrazolo[1,5-a]pyrimidine-3,7-dicarboxamide]

Same assay, conditions: hGPR68 IC50, HEK293T cells transiently expressing hGPR68, antagonism of pH 5.5 stimulated cAMP, 15 min

Row | IC50 [nM] | SMILES
15 | 500 to 5000 | COCc1cc(C(=O)NC2CC(F)(F)C2)n2nc(C)c(C(N)=O)c2n1 [Compound 39, N7-(3,3-difluorocyclobutyl)-5-(methoxymethyl)-2-methyl-pyrazolo[1,5-a]pyrimidine-3,7-dicarboxamide]
